SMILES strings stand for the structures.

This is an account of results in patent publication US20240300980A1, “HETEROCYCLIC COMPOUNDS AS KRAS INHIBITOR, AND PREPARATION THEREFOR AND USE THEREOF IN TREATMENT” (SHANGHAI KECHOW PHARMA, INC., priority 2021, published 2024).

This test deals with AGS cells (KRAS^G12D). Nature of the test: Detection of cell proliferation in vitro by MTT/MTS method (cell activity experiment). In kind it is cell-based. The following applies: Homo sapiens, AGS, 72 h, AGS cells; MTT/MTS; 3 days of drug treatment; read-out: AGS IC50. The procedure: The above cells were cultured in a complete medium containing 10% fetal bovine serum, 100 IU/mL penicillin and 100 jag/mL streptomycin, in the aseptic incubator with 95% relative humidity and 5% CO2 concentration.
2. Reagents: F12K, D-PBS, FBS, Penicillin Streptomycin, Tryple, MTT (5 mg/mL)
Appropriate amount of compound powder was weighed in a 1.5 mL centrifuge tube, then the corresponding volume of dimethyl sulfoxide (DMSO) was added to form a 20 mM reserve solution. The solution was packed separately and stored in a refrigerator at −20° C. away from light.
The cells were inoculated in a cell culture bottle, added an appropriate amount of complete medium, and cultured in a sterile incubator. When the degree of cell confluence reached more than 80%, subculture was carried out.
The adherent cells in logarithmic growth phase were digested by trypsin or the suspension cells were collected by centrifugation and counted. 90 μL cell suspension was inoculated into 96-well plate according to the cell inoculation density of 1000 cells per well, and 10 μL of 10-fold final concentration compound diluted by culture medium was added 24 hours later. Compared with the hole with the same volume of 5% DMSO as control, the final concentration of DMSO was 0.5%. After 3 days of drug treatment, the cell viability was detected by MTT. The specific methods are as follows: 10 μL MTT per well was added into the incubator for 4 hours, the supernatant was discarded and 150 μL DMSO was added to dissolve the crystal methylazan, and the absorbance of 490 nm was detected by enzyme labeling instrument, or 10 μL MITS per well was added to the incubator for 4 hours, and […] absorbance was detected directly by enzyme labeling instrument. GraphPad Prism 6 software makes dose-effect curve and calculates IC50.
A word on the IC50: it is the concentration that inhibits the measured activity by half. As for `Oc1cc(-c2ncc3c(N4C[C@H]5CC[C@@H](C4)S5)nc(OC[C@@]45CCCN4C[C@H](F)C5)nc3c2F)c2c(F)cccc2c1` [Example 26, 4-(4-((1R,5S)-8-thia-3-azabicyclo[3.2.1]octan-3-yl)-8-fluoro-2-(((2R, 7aS)-2-fluorotetrahydro-1H-pyrrolizin-7a(5H)-yl)methoxy)pyrido[4,3-d]pyrimidin-7-yl)-5-fluoronaphthalen-2-ol], the 50% inhibitory concentration (IC50) stood at 0.3 µM.

As to `Oc1cc(-c2ncc3c(N4C[C@H]5CC[C@@H](C4)S5)nc(OC[C@@]45CCCN4C[C@H](F)C5)nc3c2F)c2c(F)c(F)ccc2c1` [Example 27, 4-(4-((1R,5S)-8-thia-3-azabicyclo[3.2.1]octan-3-yl)-8-fluoro-2-(((2R,7aS)-2-fluorotetrahydro-1H-pyrrolizin-7a(5H)-yl)methoxy)pyrido[4,3-d]pyrimidin-7-yl)-5,6-difluoronaphthalen-2-ol], the IC50 amounted to 0.295 µM. Consider `[O-][S+]1C2CCC1CN(c1nc(OC[C@@]34CCCN3C[C@H](F)C4)nc3c(F)c(-c4cc(O)cc5ccc(F)c(F)c45)ncc13)C2` (stereo partly drawn) [Example 28, (1R,5S,8R)-3-(7-(7,8-difluoro-3-hydroxynaphthalen-1-yl)-8-fluoro-2-(((2R, 7aS)-2-fluorotetrahydro-1H-pyrrolizin-7a(5H)-yl)methoxy)pyrido[4,3-d]pyrimidin-4-yl)-8-thia-3-azabicyclo [3.2.1]octane 8-oxide], for which the half-maximal inhibitory concentration (IC50) was > 1 µM. Consider `O=S1(=O)[C@@H]2CC[C@H]1CN(c1nc(OC[C@@]34CCCN3C[C@H](F)C4)nc3c(F)c(-c4cc(O)cc5ccc(F)c(F)c45)ncc13)C2` [Example 29, (1R,5S)-3-(7-(7,8-difluoro-3-hydroxynaphthalen-1-yl)-8-fluoro-2-(((2R,7aS)-2-fluorotetrahydro-1H-pyrrolizin-7a(5H)-yl)methoxy)pyrido[4,3-d]pyrimidin-4-yl)-8-thia-3-azabicyclo [3.2.1]octane 8,8-dioxide], for which the IC50 was > 2.5 µM. With `C#Cc1c(F)ccc2cc(O)cc(-c3ncc4c(N5C[C@H]6CC[C@@H](C5)C6(F)F)nc(OC[C@@]56CCCN5C[C@H](F)C6)nc4c3F)c12` [Example 30, 4-(4-((1R,5S)-8,8-difluoro-3-azabicyclo[3.2.1]octan-3-yl)-8-fluoro-2-(((2R,7aS)-2-fluorotetrahydro-1H-pyrrolizin-7a(5H)-yl)methoxy)pyrido[4,3-d]pyrimidin-7-yl)-5-ethynyl-6-fluoronaphthalen-2-ol], the IC50 was > 2.5 µM. The same measure for `CCc1c(F)ccc2cc(O)cc(-c3ncc4c(N5C[C@H]6CC[C@@H](C5)C6(F)F)nc(OC[C@@]56CCCN5C[C@H](F)C6)nc4c3F)c12` [Example 31, 4-(4-((1R,5S)-8,8-difluoro-3-azabicyclo [3.2.1]octan-3-yl)-8-fluoro-2-(((2R,7aS)-2-fluorotetrahydro-1H-pyrrolizin-7a(5H)-yl)methoxy)pyrido[4,3-d]pyrimidin-7-yl)-5-ethyl-6-fluoronaphthalen-2-ol]: > 2.5 µM; for `C#Cc1cccc2cc(O)cc(-c3ncc4c(N5C[C@H]6CC[C@@H](C5)C6(F)F)nc(OC[C@@]56CCCN5C[C@H](F)C6)nc4c3F)c12` [Example 32, 4-(4-((1R,5S)-8,8-difluoro-3-azabicyclo [3.2.1]octan-3-yl)-8-fluoro-2-(((2R,7aS)-2-fluorotetrahydro-1H-pyrrolizin-7a(5H)-yl)methoxy)pyrido[4,3-d]pyrimidin-7-yl)-5-ethynylnaphthalen-2-ol]: > 2.5 µM; for `Oc1cc(-c2ncc3c(N4C[C@H]5CC[C@@H](C4)C5(F)F)nc(OC[C@@]45CCCN4C[C@H](F)C5)nc3c2F)c2c(F)c(F)ccc2c1` [Example 33, 4-(4-((1R,5S)-8,8-difluoro-3-azabicyclo [3.2.1]octan-3-yl)-8-fluoro-2-(((2R,7aS)-2-fluorotetrahydro-1H-pyrrolizin-7a(5H)-yl)methoxy)pyrido[4,3-d]pyrimidin-7-yl)-5,6-difluoronaphthalen-2-ol]: > 2.5 µM.

Consider `C#Cc1c(F)ccc2cc(O)cc(-c3ncc4c(N5CC6CCC(C5)C6F)nc(OC[C@@]56CCCN5C[C@H](F)C6)nc4c3F)c12` (stereo partly drawn) [Example 34, 5-ethynyl-6-fluoro-4-(8-fluoro-4-((1R,5S, 8R)-8-fluoro-3-azabicyclo [3.2.1]octan-3-yl)-2-(((2R,7aS)-2-fluorotetrahydro-1H-pyrrolizin-7a(5H)-yl)methoxy)pyrido[4,3-d]pyrimidin-7-yl) naphthalen-2-ol], for which the IC50 is > 2.5 µM. The same measure for `CCc1c(F)ccc2cc(O)cc(-c3ncc4c(N5CC6CCC(C5)C6F)nc(OC[C@@]56CCCN5C[C@H](F)C6)nc4c3F)c12` (stereo partly drawn) [Example 35, 5-ethyl-6-fluoro-4-(8-fluoro-4-((1R,5S,8R)-8-fluoro-3-azabicyclo [3.2.1]octan-3-yl)-2-(((2R,7aS)-- fluorotetrahydro-1H-pyrrolizin-7a(5H)-yl)methoxy)pyrido[4,3-d]pyrimidin-7-yl) naphthalen-2-ol]: > 2.5 µM; for `C#Cc1cccc2cc(O)cc(-c3ncc4c(N5CC6CCC(C5)C6F)nc(OC[C@@]56CCCN5C[C@H](F)C6)nc4c3F)c12` (stereo partly drawn) [Example 36, 5-ethynyl-4-(8-fluoro-4-((1R,5S,8R)-8-fluoro-3-azabicyclo[3.2.1]octan-3-yl)-2-(((2R,7aS)-2-fluorotetrahydro-1H-pyrrolizin-7a(5H)-yl)methoxy)pyrido[4,3-d]pyrimidin-7-yl) naphthalen-2-ol]: > 2.5 µM; for `Oc1cc(-c2ncc3c(N4CC5CCC(C4)C5F)nc(OC[C@@]45CCCN4C[C@H](F)C5)nc3c2F)c2c(F)c(F)ccc2c1` (stereo partly drawn) [Example 37, 5,6-difluoro-4-(8-fluoro-4-((1R,5S,8R)-8-fluoro-3-azabicyclo[3.2.1]octan-3-yl)-2-(((2R,7aS)-2-fluorotetrahydro-1H-pyrrolizin-7a(5H)-yl)methoxy)pyrido[4,3-d]pyrimidin-7-yl) naphthalen-2-ol]: > 2.5 µM. For the compound `Nc1cc2ccc(F)c(F)c2c(-c2ncc3c(N4C[C@H]5CC[C@@H](C4)N5)nc(OC[C@@]45CCCN4C[C@H](F)C5)nc3c2F)n1` [Example 38, 1-(4-((1R,5S)-3,8-diazabicyclo[3.2.1]octan-3-yl)-8-fluoro-2-(((2R,7aS)-2-fluorotetrahydro-1H-pyrrolizin-7a(5H)-yl)methoxy)pyrido[4,3-d]pyrimidin-7-yl)-7,8-difluoroisoquinolin-3-amine], the concentration for half-maximal inhibition (IC50) is > 2.5 µM. Take `Nc1cc2ccc(F)c(Cl)c2c(-c2ncc3c(N4C[C@H]5CC[C@@H](C4)N5)nc(OC[C@@]45CCCN4C[C@H](F)C5)nc3c2F)n1` [Example 39, 1-(4-((1R,5S)-3,8-diazabicyclo[3.2.1]octan-3-yl)-8-fluoro-2-(((2R,7aS)-2-fluorotetrahydro-1H-pyrrolizin-7a(5H)-yl)methoxy)pyrido[4,3-d]pyrimidin-7-yl)-8-chloro-7-fluoroisoquinolin-3-amine]: the IC50 was > 2.5 µM. The figure for `C#Cc1c(F)ccc2cc(N)nc(-c3ncc4c(N5C[C@H]6CC[C@@H](C5)N6)nc(OC[C@@]56CCCN5C[C@H](F)C6)nc4c3F)c12` [Example 40, 1-(4-((1R,5S)-3,8-diazabicyclo[3.2.1]octan-3-yl)-8-fluoro-2-(((2R,7aS)-2-fluorotetrahydro-1H-pyrrolizin-7a(5H)-yl)methoxy)pyrido[4,3-d]pyrimidin-7-yl)-8-ethynyl-7-fluoroisoquinolin-3-amine] is > 2.5 µM; for `Cc1cc(N)nc(-c2ncc3c(N4C[C@H]5CC[C@@H](C4)N5)nc(OC[C@@]45CCCN4C[C@H](F)C5)nc3c2F)c1C(F)(F)F` [Example 41, 6-(4-((1R,5S)-3,8-diazabicyclo[3.2.1]octan-3-yl)-8-fluoro-2-(((2R,7aS)-2-fluorotetrahydro-1H-pyrrolizin-7a(5H)-yl)methoxy)pyrido[4,3-d]pyrimidin-7-yl)-4-methyl-5-(trifluoromethyl) pyridin-2-amine] it is > 2.5 µM; for `Nc1cc(-c2ncc3c(N4C[C@H]5CC[C@@H](C4)N5)nc(OC[C@@]45CCCN4C[C@H](F)C5)nc3c2F)c2ccccc2c1` [Example 42, 4-(4-((1R,5S)-3,8-diazabicyclo[3.2.1]octan-3-yl)-8-fluoro-2-(((2R,7aS)-2-fluorotetrahydro-1H-pyrrolizin-7a(5H)-yl)methoxy)pyrido[4,3-d]pyrimidin-7-yl) naphthalen-2-amine] it is 0.109 µM. On to `C#Cc1c(F)ccc2cc(O)cc(-c3ncc4c(N5CC6CCCC(C5)N6)nc(OC[C@@]56CCCN5C[C@H](F)C6)nc4c3F)c12` [Example 43, 4-(4-(3,9-diazabicyclo [3.3.1]nonan-3-yl)-8-fluoro-2-(((2R,7aS)-2-fluorotetrahydro-1H-pyrrolizin-7a(5H)-yl)methoxy)pyrido[4,3-d]pyrimidin-7-yl)-5-ethynyl-6-fluoronaphthalen-2-ol], for which the concentration for half-maximal inhibition (IC50) worked out at 0.031 µM. For the compound `C#Cc1cccc2cc(O)cc(-c3ncc4c(N5CC6CCCC(C5)N6)nc(OC[C@@]56CCCN5C[C@H](F)C6)nc4c3F)c12` [Example 44, 4-(4-(3,9-diazabicyclo [3.3.1]nonan-3-yl)-8-fluoro-2-(((2R,7aS)-2-fluorotetrahydro-1H-pyrrolizin-7a(5H)-yl)methoxy)pyrido[4,3-d]pyrimidin-7-yl)-5-ethynylnaphthalen-2-ol], the IC50 was 0.047 µM.
